As usually defined, the Ki is a measure of affinity in units of concentration, obtained from inhibition or displacement. The low end stands for tighter binding, the high end for weaker binding.

Each structure is given as a SMILES string. Peptide text beside a SMILES is read from it.

Sequence of Neurotensin receptor type 1 (Mus musculus) (O88319 whole entry): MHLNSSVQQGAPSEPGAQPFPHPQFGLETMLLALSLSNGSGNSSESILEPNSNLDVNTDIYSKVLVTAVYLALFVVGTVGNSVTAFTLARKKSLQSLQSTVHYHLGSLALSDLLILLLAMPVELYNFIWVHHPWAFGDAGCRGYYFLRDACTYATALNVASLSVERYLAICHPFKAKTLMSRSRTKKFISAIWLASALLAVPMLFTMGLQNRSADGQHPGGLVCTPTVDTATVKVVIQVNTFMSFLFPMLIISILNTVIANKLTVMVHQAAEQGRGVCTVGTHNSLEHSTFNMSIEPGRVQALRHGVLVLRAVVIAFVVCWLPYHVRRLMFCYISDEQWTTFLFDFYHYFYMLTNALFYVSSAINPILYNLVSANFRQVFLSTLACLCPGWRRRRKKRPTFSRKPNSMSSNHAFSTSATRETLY

One experiment has as its target Neurotensin receptor type 1 (Mus musculus) (UniProt O88319). As to the kind of experiment: Tested for change in binding affinity to Neurotensin (NT) receptor in neonatal mouse whole brain (minus cerebellum). The experiment is classed as tissue-based.
Settings: not given
On to `CC[C@@H](C)[C@H](NC(=O)[C@H](Cc1ccc(O)cc1)NC(=O)[C@H](C)NC(=O)[C@H](CCCN=C(N)N)NC(=O)[C@@H](N)CCCN=C(N)N)C(=O)N[C@@H](CC(C)C)C(=O)O`, for which the Ki ratio is 50.
As for `CC[C@@H](C)[C@H](NC(=O)[C@H](Cc1ccc(O)cc1)NC(=O)[C@@H]1CCCN1C(=O)[C@H](C)NC(=O)[C@@H](N)CCCN=C(N)N)C(=O)N[C@@H](CC(C)C)C(=O)O`, the Ki ratio amounted to 120.
For the compound `CC[C@@H](C)[C@H](NC(=O)[C@H](Cc1ccc(O)cc1)NC(=O)[C@@H]1CCCN1C(=O)[C@H](CCCN=C(N)N)NC(=O)[C@H](C)N)C(=O)N[C@@H](CC(C)C)C(=O)O`, the Ki ratio is 14.
For `CC[C@@H](C)[C@H](NC(=O)[C@H](C)NC(=O)[C@@H]1CCCN1C(=O)[C@H](CCCN=C(N)N)NC(=O)[C@@H](N)CCCN=C(N)N)C(=O)N[C@@H](CC(C)C)C(=O)O`, the Ki ratio amounted to 6100.
As for `CC[C@@H](C)[C@H](NC(=O)[C@H](C)NC(=O)[C@@H]1CCCN1C(=O)[C@H](CCCN=C(N)N)NC(=O)[C@@H](N)CCCN=C(N)N)C(=O)N[C@@H](C)C(=O)O`, the Ki ratio amounted to 220000.
For `CC[C@@H](C)[C@H](NC(=O)[C@H](Cc1ccc(O)cc1)NC(=O)[C@@H]1CCCN1C(=O)[C@H](CCCN=C(N)N)NC(=O)[C@@H](N)CCCN=C(N)N)C(=O)N[C@@H](C)C(=O)O`, the Ki ratio came out at 11000.
Consider `CC(C)C[C@H](NC(=O)[C@H](C)NC(=O)[C@H](Cc1ccc(O)cc1)NC(=O)[C@@H]1CCCN1C(=O)[C@H](CCCN=C(N)N)NC(=O)[C@@H](N)CCCN=C(N)N)C(=O)O` (H-RRPYAL-OH), for which the Ki ratio worked out at 250.

The target is the same in the next experiment. Conditions: Cerebellum.
Description: Tested for change in binding affinity in neonatal mouse whole brain (minus cerebellum)
Compound `CC[C@@H](C)[C@H](NC(=O)[C@H](Cc1ccc(O)cc1)NC(=O)[C@@H]1CCCN1C(=O)[C@H](CCCNC(=N)N)NC(=O)[C@@H](N)CCCNC(=N)N)C(=O)N[C@@H](CC(C)C)C(=O)O` had a Ki(1.8x10e-11) of 1 M.

In another experiment the target is Neurotensin receptor type 1 (Mus musculus, UniProt O88319). The experiment can be described thus: Inhibition of specific binding of [125I]-Tyr3-NT(1-13) to NT receptors in neonatal mouse whole brain (minus cerebellum).
Sequence of Neurotensin receptor type 1 (O88319 whole entry): as above
Settings: not given
The experiment is classed as tissue-based.
Consider `CC[C@H](C)[C@H](NC(=O)[C@H](Cc1ccc(O)cc1)NC(=O)[C@@H]1CCCN1C(=O)[C@H](CCCNC(=N)N)NC(=O)[C@H](CCCNC(=N)N)NC(=O)[C@@H]1CCCN1C(=O)[C@H](CCCCN)NC(=O)[C@H](CC(N)=O)NC(=O)[C@H](CCC(=O)O)NC(C)=O)C(=O)N[C@@H](CC(C)C)C(=O)O` (Ac-ENKPRRPYIL-OH), for which the Ki is 0.12 nM.
`CC[C@H](C)[C@H](NC(=O)[C@H](Cc1ccc(O)cc1)NC(=O)[C@@H]1CCCN1C(=O)[C@H](CCCNC(=N)N)NC(=O)[C@@H](N)CCCNC(=N)N)C(N)=O` returned a Ki of 12000 nM.
The compound `CC[C@H](C)[C@H](NC(=O)[C@H](Cc1ccc(O)cc1)NC(=O)[C@@H]1CCCN1C(=O)[C@H](CCCNC(=N)N)NC(=O)[C@H](C)N)C(=O)N[C@@H](CC(C)C)C(=O)O` returned a Ki of 0.25 nM.
`CC(C)C[C@H](NC(=O)[C@H](C)NC(=O)[C@H](Cc1ccc(O)cc1)NC(=O)[C@@H]1CCCN1C(=O)[C@H](CCCNC(=N)N)NC(=O)[C@@H](N)CCCNC(=N)N)C(=O)O` (H-RRPYAL-OH) displayed a Ki of 4.5 nM.
Compound `CC[C@H](C)[C@H](NC(=O)[C@H](Cc1ccc(O)cc1)NC(=O)[C@@H]1CCCN1C(=O)[C@H](CCCNC(=N)N)NC(=O)[C@H](CCCNC(=N)N)NC(=O)[C@@H]1CCCN1C(=O)[C@H](CCCCN)NC(C)=O)C(=O)N[C@@H](CC(C)C)C(=O)O` yielded a Ki of 0.024 nM.
In turn, `CC[C@H](C)[C@H](NC(=O)[C@H](C)NC(=O)[C@@H]1CCCN1C(=O)[C@H](CCCN=C(N)N)NC(=O)[C@@H](N)CCCN=C(N)N)C(=O)N[C@@H](CC(C)C)C(=O)O` registered a Ki of 110 nM.
Regarding `CC[C@H](C)[C@H](NC(=O)[C@H](Cc1ccc(O)cc1)NC(=O)[C@@H]1CCCN1C(=O)[C@H](CCCNC(=N)N)NC(=O)[C@H](CCCNC(=N)N)NC(=O)[C@@H]1CCCN1C(=O)[C@H](CCCCN)NC(=O)[C@H](CC(N)=O)NC(C)=O)C(=O)N[C@@H](CC(C)C)C(=O)O` (Ac-NKPRRPYIL-OH), the Ki is 0.013 nM. This Ki is about 8500-fold lower than that of the compound before.
On the same count and under the same terms, the value for `CC[C@H](C)[C@H](NC(=O)[C@H](C)NC(=O)[C@@H]1CCCN1C(=O)[C@H](CCCN=C(N)N)NC(=O)[C@@H](N)CCCN=C(N)N)C(=O)N[C@@H](C)C(=O)O` was 3900 nM; that for `CC[C@H](C)[C@H](NC(=O)[C@H](Cc1ccc(O)cc1)NC(=O)[C@@H]1CCCN1C(=O)[C@H](CCCN=C(N)N)NC(=O)[C@H](CCCN=C(N)N)NC(=O)[C@@H]1CCCN1C(=O)[C@H](CCCCN)NC(=O)[C@H](CC(N)=O)NC(=O)[C@H](CCC(=O)O)NC(=O)[C@H](Cc1ccc(O)cc1)NC(C)=O)C(=O)N[C@@H](CC(C)C)C(=O)O` (Ac-YENKPRRPYIL-OH) was 0.21 nM; that for `CC[C@H](C)[C@H](NC(=O)[C@H](Cc1ccc(O)cc1)NC(=O)[C@H](C)NC(=O)[C@H](CCCN=C(N)N)NC(=O)[C@@H](N)CCCN=C(N)N)C(=O)N[C@@H](CC(C)C)C(=O)O` was 0.92 nM.
Turning to `CC[C@H](C)[C@H](NC(=O)[C@H](Cc1ccc(O)cc1)NC(=O)[C@@H]1CCCN1C(=O)[C@H](CCCNC(=N)N)NC(=O)[C@@H](N)CCCNC(=N)N)C(=O)N[C@@H](C)C(=O)O`, affinity was put at a Ki of 200 nM.
Compound `CC[C@H](C)[C@H](NC(=O)[C@H](Cc1ccc(O)cc1)NC(=O)[C@@H]1CCCN1C(=O)[C@H](CCCNC(=N)N)NC(=O)[C@H](CCCNC(=N)N)NC(=O)[C@@H]1CCCN1C(=O)[C@H](CCCCN)NC(=O)[C@H](CC(N)=O)NC(=O)[C@H](CCC(=O)O)NC(=O)[C@H](Cc1ccc(O)cc1)NC(=O)[C@H](CC(C)C)NC(C)=O)C(=O)N[C@@H](CC(C)C)C(=O)O` yielded a Ki of 0.11 nM.
Take `CC[C@H](C)[C@H](NC(=O)[C@H](Cc1ccc(O)cc1)NC(=O)[C@@H]1CCCN1C(=O)[C@H](CCCNC(=N)N)NC(=O)[C@H](CCCNC(=N)N)NC(=O)[C@@H]1CCCN1C(C)=O)C(=O)N[C@@H](CC(C)C)C(=O)O` (Ac-PRRPYIL-OH): the affinity corresponds to a Ki of 0.1 nM.
With `CC[C@H](C)[C@H](NC(=O)[C@H](Cc1ccc(O)cc1)NC(=O)[C@@H]1CCCN1C(=O)[C@H](C)NC(=O)[C@@H](N)CCCN=C(N)N)C(=O)N[C@@H](CC(C)C)C(=O)O`, affinity was put at a Ki of 2.1 nM.

Values taken from ChEMBL document CHEMBL1126483 (Bioorg Med Chem Lett, 1993).
